Measured values taken from patent publication US20090098097A1, “COMPOSITION FOR NORMALIZING BLOOD PRESSURE” (KANEKA CORPORATION, priority 2006, published 2009).

Columns and labels:
[1] = system: healthy male volunteers; assay: Evaluation of blood pressure normalization by oxidized coenzyme Q10 in healthy subjects; assay type: in vivo, human; conditions: for systolic blood pressure / diastolic blood pressure relative to before ingestion (100): 4 weeks after ingestion; for systolic blood pressure: before breakfast
Procedure: Healthy male volunteers (22 subjects) ingested soft capsule preparation containing oxidized coenzyme Q10 (150 mg) by 6 capsules (total 900 mg) per day, and the blood pressure before breakfast was measured before and after ingestion for 4 weeks. After the measurement, the subjects were divided into three groups of hypotension group (n=6, not more than 110 mmHg), normal blood pressure group (n=8, 110-130 mmHg) and mild hypertension group (n=8, 130-150 mmHg), according to the systolic blood pressure before ingestion, and analyzed. […] Consequently, a hypotension improving effect of oxidized coenzyme Q10 in healthy human subjects has been clarified.

[2] = system: healthy male and female volunteers; assay: Evaluation of blood pressure normalization by reduced coenzyme Q10 in healthy subjects; assay type: in vivo, human; conditions: for systolic blood pressure / diastolic blood pressure relative to before ingestion (100): 4 weeks after ingestion; for systolic blood pressure: before breakfast; for change in blood pressure after ingestion as compared to before ingestion (in words): 150 mg per day for 4 weeks
Procedure: Healthy male and female volunteers (20 subjects) ingested 5 soft capsules (total 150 mg) per day each containing 30 mg of reduced coenzyme Q10 (containing about 2% of oxidized coenzyme Q10), and the blood pressure before breakfast was measured before and after ingestion for 4 weeks. After the measurement, the subjects were divided into three groups of hypotension group (n=8, not more than 110 mmHg), normal blood pressure group (n=8, 110-130 mmHg) and mild hypertension group (n=4, 130-150 mmHg), according to the systolic blood pressure before ingestion, and analyzed.

| SMILES | systolic blood pressure ([1]; hypotension group (n=6, not more than 110 mmHg), 900 mg per day soft capsules, before ingestion 105.5 ± 4.4) | diastolic blood pressure relative to before ingestion (100) ([1]; hypotension group, 900 mg per day, **p < 0.01 U-test) | systolic blood pressure ([1]; mild hypertension group (n=8, 130-150 mmHg), 900 mg per day, before ingestion 135.8 ± 4.6) | diastolic blood pressure relative to before ingestion (100) ([1]; mild hypertension group, 900 mg per day) | systolic blood pressure ([1]; normal blood pressure group (n=8, 110-130 mmHg), 900 mg per day, before ingestion 126.1 ± 2.7) | change in blood pressure after ingestion as compared to before ingestion (in words) ([1]; normal blood pressure group, 900 mg per day for 4 weeks) | diastolic blood pressure relative to before ingestion (100) ([1]; normal blood pressure group, 900 mg per day) | systolic blood pressure ([2]; hypotension group (n=8, not more than 110 mmHg), 150 mg per day soft capsules, before ingestion 99.6 ± 4.9) | change in blood pressure after ingestion as compared to before ingestion (in words) ([2]; hypotension group) | diastolic blood pressure relative to before ingestion (100) ([2]; hypotension group, 150 mg per day, **p < 0.01 U-test) | systolic blood pressure ([2]; mild hypertension group (n=4, 130-150 mmHg), 150 mg per day, before ingestion 140.5 ± 9.2) | change in blood pressure after ingestion as compared to before ingestion (in words) ([2]; mild hypertension group) | diastolic blood pressure relative to before ingestion (100) ([2]; mild hypertension group, 150 mg per day, *p < 0.05 U-test) | systolic blood pressure ([2]; normal blood pressure group (n=8, 110-130 mmHg), 150 mg per day, before ingestion 125.3 ± 3.1) | change in blood pressure after ingestion as compared to before ingestion (in words) ([2]; normal blood pressure group) | diastolic blood pressure relative to before ingestion (100) ([2]; normal blood pressure group, 150 mg per day) |
| --- | --- | --- | --- | --- | --- | --- | --- | --- | --- | --- | --- | --- | --- | --- | --- | --- |
| COC1=C(OC)C(=O)C(C/C=C(\C)CC/C=C(\C)CC/C=C(\C)CC/C=C(\C)CC/C=C(\C)CC/C=C(\C)CC/C=C(\C)CC/C=C(\C)CC/C=C(\C)CCC=C(C)C)=C(C)C1=O [oxidized coenzyme Q10] | 126.5 ± 2.9 mmHg | (120**) | 134.8 ± 9.4 mmHg | (100) | 127.6 ± 7.7 mmHg | did not show significant variations | (101) | – | – | – | – | – | – | – | – | – |
| COc1c(O)c(C)c(C/C=C(\C)CC/C=C(\C)CC/C=C(\C)CC/C=C(\C)CC/C=C(\C)CC/C=C(\C)CC/C=C(\C)CC/C=C(\C)CC/C=C(\C)CCC=C(C)C)c(O)c1OC [reduced coenzyme Q10] | – | – | – | – | – | – | – | 117.5 ± 6.2 mmHg | significant increase in the blood pressure | (118**) | 125.1 ± 6.1 mmHg | significant decrease in the blood pressure | (89*) | 125.5 ± 9.1 mmHg | did not show significant variations | (100) |
